# According to ChEMBL document CHEMBL5046259, “Cannabinoids Block Cellular Entry of SARS-CoV-2 and the Emerging Variants” (J Nat Prod, 2022):
# The source made the active and inactive calls. The rule behind the calls is not given here.
# Legend:
# SARS-CoV-2 [1] = assay: Antiviral activity against SARS-CoV-2 infected in African green monkey Vero E6 cells assessed as inhibition of viral entry at 25 ug/ml measured after 24 hrs post infection by fluorescence microscopy; assay type: functional, organism-based; settings: Severe acute respiratory syndrome coronavirus 2, dose 25.0 µg/ml
# SARS-CoV-2 [2] = assay: Antiviral activity against SARS-CoV-2 isolate USA-WA1/2020 strain infected in African green monkey Vero E6 cells assessed as inhibition of viral entry incubated for 1 hr prior to infection and measured after 48 hrs by Focus forming assay; assay type: functional, organism-based; settings: Severe acute respiratory syndrome coronavirus 2, USA-WA1/2020, Vero C1008
# HEK-293T = assay: Cytotoxicity against human HEK293T cells overexpressing ACE2 by resazurin assay; assay type: toxicity, cell-based
# Caco-2 = assay: Cytotoxicity against human Caco-2 cells by resazurin assay; assay type: toxicity, cell-based
# Vero C1008 = assay: Cytotoxicity against African green monkey Vero E6 cells by resazurin assay; assay type: toxicity, cell-based; settings: chlorocebus sabaeus
SMILES,Activity (SARS-CoV-2 [1]),IC50 (SARS-CoV-2 [2]) [µg/mL],Activity (HEK-293T),Activity (Caco-2),Activity (Vero C1008)
C=C(C)[C@@H]1CCC(C)=C[C@H]1c1c(O)cc(CCCCC)c(C(=O)O)c1O [CANNABIDIOLIC ACID],Active,24,Non-Toxic,Non-Toxic,Non-Toxic
CCCCCc1cc(O)c(C/C=C(\C)CCC=C(C)C)c(O)c1C(=O)O [CANNABIGEROLIC ACID],Active,37,Non-Toxic,Non-Toxic,Non-Toxic
